One data set deals with Z-138 cells. Description: Annexin V/propidium iodide apoptosis assay. It counts as cell-based, human. Particulars: up to 5 μM, 24 h, Annexin V/PI.
The test system of data set [1] is Mino cells. Description: Alamar Blue cell viability assay. Type of data set: cell-based, human. Particulars: 48 h, read-out: antiproliferative IC50 Mino. For orientation: Alamar Blue is a resazurin reagent that responds to reducing activity.
The subject of data set [2] is Mino cells. The data set can be described thus: Annexin V/propidium iodide apoptosis assay. It counts as cell-based, human. The following applies: up to 5 μM, 24 h, Annexin V/PI.
The test system of data set [3] is pPLCγ2(Y759) in JeKo-1 cells. The data set can be described thus: Western blot of IgM-stimulated cells. It counts as cell-based, human. The following applies: IgM-stimulated JeKo-1 cells, 1 hr.
Data set [4] concerns Ibrutinib-resistant Granta cells. Description: Alamar Blue cell viability assay. The following applies: Homo sapiens, 48 h, read-out: antiproliferative IC50 Granta. It counts as cell-based.
The subject of data set [5] is JeKo-1 cells. The data set can be described thus: Alamar Blue cell viability assay. The following applies: read-out: antiproliferative IC50 JeKo-1. Type of data set: cell-based, human.
Another data set concerns JeKo-1 and Mino cells. The data set can be described thus: apoptosis after drug washout. It counts as cell-based, human. Particulars: 5 μM, treated 4 or 8 h, analyzed 16 or 20 h post washout.
For data set [6] the following is noted: relapsed-refractory MCL; ref Byrd et al., 2013; Sarkozy and Ribrag, 2020; cited from earlier work.
Data set [7] has as its system JeKo-1 cells. The data set can be described thus: Annexin V/propidium iodide apoptosis assay. Particulars: up to 5 μM, 24 h, Annexin V/PI. Type of data set: cell-based, human.
Data set [8] has as its target BRD4 BD1 (Homo sapiens, UniProt O60885). Description: Alpha Screen assay against tetra-acetylated histone H4 peptide. It counts as binding. The following applies: read-out: IC50 BRD4 BD1.
The test system of data set [9] is BTK and AKT phosphorylation in Mino cells. The data set can be described thus: inhibitor washout assay. Particulars: 1 h treatment, 24 h post washout.
The target in the next data set is PI3Kα (Homo sapiens, UniProt P42336). Description: in vitro kinase assay. It counts as biochemical. The following applies: read-out: IC50 PI3Kα.
Chain of PI3Kα (P42336 whole entry): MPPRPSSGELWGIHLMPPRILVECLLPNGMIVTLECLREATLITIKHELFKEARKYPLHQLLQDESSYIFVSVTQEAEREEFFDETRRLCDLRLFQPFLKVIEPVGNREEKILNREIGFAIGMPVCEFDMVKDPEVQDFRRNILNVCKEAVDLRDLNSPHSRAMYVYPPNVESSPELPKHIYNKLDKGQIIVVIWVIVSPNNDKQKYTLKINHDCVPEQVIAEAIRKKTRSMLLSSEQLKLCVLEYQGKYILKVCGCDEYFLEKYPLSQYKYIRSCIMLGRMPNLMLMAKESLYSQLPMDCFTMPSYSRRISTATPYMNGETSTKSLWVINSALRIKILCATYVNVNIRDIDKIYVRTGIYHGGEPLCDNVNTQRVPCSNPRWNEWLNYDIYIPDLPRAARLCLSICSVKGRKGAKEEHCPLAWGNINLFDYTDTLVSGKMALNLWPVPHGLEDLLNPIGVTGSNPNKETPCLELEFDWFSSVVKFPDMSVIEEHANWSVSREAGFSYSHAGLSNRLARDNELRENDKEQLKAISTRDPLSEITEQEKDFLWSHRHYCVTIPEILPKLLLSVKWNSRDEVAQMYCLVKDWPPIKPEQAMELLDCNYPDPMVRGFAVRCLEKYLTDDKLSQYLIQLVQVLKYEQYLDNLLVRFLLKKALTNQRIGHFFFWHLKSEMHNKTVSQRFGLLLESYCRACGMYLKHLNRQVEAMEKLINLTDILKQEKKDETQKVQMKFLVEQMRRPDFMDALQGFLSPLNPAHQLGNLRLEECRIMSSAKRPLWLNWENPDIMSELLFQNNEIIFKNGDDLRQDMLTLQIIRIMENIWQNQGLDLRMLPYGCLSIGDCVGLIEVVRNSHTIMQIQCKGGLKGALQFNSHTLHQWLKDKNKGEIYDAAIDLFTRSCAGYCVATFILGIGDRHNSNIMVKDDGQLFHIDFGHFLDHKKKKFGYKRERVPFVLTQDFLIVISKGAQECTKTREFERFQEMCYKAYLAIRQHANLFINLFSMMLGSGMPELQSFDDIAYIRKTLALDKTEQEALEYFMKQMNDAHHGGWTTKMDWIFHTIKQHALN
Chain of PI3Kα (P27986 whole entry partner): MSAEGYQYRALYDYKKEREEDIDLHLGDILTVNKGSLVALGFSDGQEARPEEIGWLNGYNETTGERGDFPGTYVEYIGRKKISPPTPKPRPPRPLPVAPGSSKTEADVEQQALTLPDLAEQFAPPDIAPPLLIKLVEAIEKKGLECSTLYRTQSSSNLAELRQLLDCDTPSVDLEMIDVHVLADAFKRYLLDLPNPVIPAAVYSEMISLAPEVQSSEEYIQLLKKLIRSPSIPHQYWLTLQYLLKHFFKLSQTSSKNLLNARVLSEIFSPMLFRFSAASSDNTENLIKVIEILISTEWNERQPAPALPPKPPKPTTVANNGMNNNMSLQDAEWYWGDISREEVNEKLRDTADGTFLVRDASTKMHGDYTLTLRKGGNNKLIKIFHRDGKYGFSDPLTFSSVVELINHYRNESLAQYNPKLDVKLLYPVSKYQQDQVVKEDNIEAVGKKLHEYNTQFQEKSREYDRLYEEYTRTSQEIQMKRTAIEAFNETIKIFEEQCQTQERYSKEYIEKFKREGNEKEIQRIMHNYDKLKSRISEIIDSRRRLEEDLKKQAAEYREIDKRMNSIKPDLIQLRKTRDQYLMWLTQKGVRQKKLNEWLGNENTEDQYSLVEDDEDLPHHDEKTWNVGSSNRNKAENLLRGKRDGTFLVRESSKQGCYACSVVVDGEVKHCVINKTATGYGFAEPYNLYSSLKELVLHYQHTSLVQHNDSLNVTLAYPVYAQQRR
The target of another data set is BTK (Homo sapiens, UniProt Q06187). Description: in vitro kinase assay. It counts as biochemical. Particulars: read-out: IC50 BTK.
Chain of BTK (Q06187 whole entry): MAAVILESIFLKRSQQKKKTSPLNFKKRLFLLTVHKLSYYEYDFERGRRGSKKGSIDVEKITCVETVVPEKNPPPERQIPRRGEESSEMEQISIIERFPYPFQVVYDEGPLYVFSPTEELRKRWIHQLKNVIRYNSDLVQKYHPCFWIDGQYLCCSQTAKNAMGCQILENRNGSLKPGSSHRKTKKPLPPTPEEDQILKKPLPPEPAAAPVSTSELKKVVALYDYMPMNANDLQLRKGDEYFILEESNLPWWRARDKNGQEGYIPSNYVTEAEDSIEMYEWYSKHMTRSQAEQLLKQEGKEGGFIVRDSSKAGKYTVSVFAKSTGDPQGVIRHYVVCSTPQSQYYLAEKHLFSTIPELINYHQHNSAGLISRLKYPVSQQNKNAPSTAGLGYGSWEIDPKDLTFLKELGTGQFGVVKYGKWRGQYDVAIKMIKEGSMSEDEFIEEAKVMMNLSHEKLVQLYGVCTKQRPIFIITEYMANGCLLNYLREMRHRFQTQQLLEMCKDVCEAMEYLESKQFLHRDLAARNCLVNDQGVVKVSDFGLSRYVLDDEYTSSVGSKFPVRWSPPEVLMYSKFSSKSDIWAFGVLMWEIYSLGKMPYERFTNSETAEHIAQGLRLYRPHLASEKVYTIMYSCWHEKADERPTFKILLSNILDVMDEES
For data set [10], the system named is JeKo-1 BTK-WT, JeKo-1 BTK-C481S and Mino BTK-C481S cells. Particulars: up to 5 μM.
The next data set deals with JeKo-1 MCL tumors. The data set can be described thus: JeKo-1 MCL xenograft tumor model. Type of data set: in vivo. The following applies: 60 mg/kg daily by oral gavage; SRX3262 vs Ibrutinib-treated mice.
Another data set addresses PI3Kδ (Homo sapiens, UniProt O00329). The data set can be described thus: in vitro kinase assay. It counts as biochemical. Particulars: read-out: IC50 PI3Kδ.
The next data set concerns JeKo-1 BTK-WT cells. Description: cell viability assay, engineered BTK cell lines. It counts as cell-based, human.
Data set [11] relates to pBTK(Y223) and pAKT(S473) in Mino cells. The data set can be described thus: Western blot of IgM-stimulated cells. It counts as cell-based, human. The following applies: 1 hr. In general terms: Immunoblotting shows a protein as a band on a membrane.
The subject of the next data set is Mino BTK-WT cells. Description: cell viability assay, engineered BTK cell lines. It counts as cell-based, human. Particulars: read-out: IC50 Mino BTK-WT; 48 h.
A further data set concerns JeKo-1 BTK-C481S cells. The data set can be described thus: cell viability assay, engineered BTK cell lines. It counts as cell-based, human. The following applies: read-out: IC50 JeKo-1 BTK-C481S; 48 h, Ibrutinib-resistant BTK-C481S.
Data set [12] relates to JeKo-1 chronic Ibrutinib-resistant cell line. Description: Cell titer Glow viability assay. Type of data set: cell-based, human. In general terms: In ATP-based viability assays light output follows the ATP content of the culture.
Data set [13] deals with BRD4 occupancy at the cMYC promoter in JeKo-1 cells. The data set can be described thus: BRD4 ChIP assay at the cMYC promoter. Type of data set: cell-based, human. The following applies: 1 μM, 24 h.
Data set [14] relates to JeKo-1 cells. Description: cell cycle analysis. It counts as cell-based, human. The following applies: JeKo-1, 1–5 μM, 24 h.
For the next data set, the system named is Mino BTK-C481S cells. The data set can be described thus: cell viability assay, engineered BTK cell lines. Type of data set: cell-based, human. Particulars: read-out: IC50 Mino BTK-C481S; 48 h, Ibrutinib-resistant BTK-C481S.
Data set [15] deals with BRD4 BD2. The data set can be described thus: NMR titration. It counts as binding. The following applies: 15N-labeled protein, PBS pH 6.8.
For data set [16], the system named is BRD4 BD1. The data set can be described thus: NMR titration. Type of data set: binding. The following applies: 15N-labeled protein, PBS pH 6.8.
The test system of data set [17] is cMYC protein in Jeko-1 and Mino cells. Description: Western blot of cMYC. Type of data set: cell-based, human.
Data set [18] has as its target BRD4 BD2 (Homo sapiens, UniProt O60885). The data set can be described thus: Alpha Screen assay against tetra-acetylated histone H4 peptide. Type of data set: binding. Particulars: read-out: IC50 BRD4 BD2.
Data set [19] has as its system cMYC, BCL2 and HEXIM1 expression in JeKo-1 and Mino cells. Description: qRT-PCR of BRD4 target genes. It counts as cell-based, human. Particulars: 1 and 2.5 μM, 24 hr.

Where two headings read alike, the source gives them in different places.

Chain of PI3Kδ (O00329 whole entry): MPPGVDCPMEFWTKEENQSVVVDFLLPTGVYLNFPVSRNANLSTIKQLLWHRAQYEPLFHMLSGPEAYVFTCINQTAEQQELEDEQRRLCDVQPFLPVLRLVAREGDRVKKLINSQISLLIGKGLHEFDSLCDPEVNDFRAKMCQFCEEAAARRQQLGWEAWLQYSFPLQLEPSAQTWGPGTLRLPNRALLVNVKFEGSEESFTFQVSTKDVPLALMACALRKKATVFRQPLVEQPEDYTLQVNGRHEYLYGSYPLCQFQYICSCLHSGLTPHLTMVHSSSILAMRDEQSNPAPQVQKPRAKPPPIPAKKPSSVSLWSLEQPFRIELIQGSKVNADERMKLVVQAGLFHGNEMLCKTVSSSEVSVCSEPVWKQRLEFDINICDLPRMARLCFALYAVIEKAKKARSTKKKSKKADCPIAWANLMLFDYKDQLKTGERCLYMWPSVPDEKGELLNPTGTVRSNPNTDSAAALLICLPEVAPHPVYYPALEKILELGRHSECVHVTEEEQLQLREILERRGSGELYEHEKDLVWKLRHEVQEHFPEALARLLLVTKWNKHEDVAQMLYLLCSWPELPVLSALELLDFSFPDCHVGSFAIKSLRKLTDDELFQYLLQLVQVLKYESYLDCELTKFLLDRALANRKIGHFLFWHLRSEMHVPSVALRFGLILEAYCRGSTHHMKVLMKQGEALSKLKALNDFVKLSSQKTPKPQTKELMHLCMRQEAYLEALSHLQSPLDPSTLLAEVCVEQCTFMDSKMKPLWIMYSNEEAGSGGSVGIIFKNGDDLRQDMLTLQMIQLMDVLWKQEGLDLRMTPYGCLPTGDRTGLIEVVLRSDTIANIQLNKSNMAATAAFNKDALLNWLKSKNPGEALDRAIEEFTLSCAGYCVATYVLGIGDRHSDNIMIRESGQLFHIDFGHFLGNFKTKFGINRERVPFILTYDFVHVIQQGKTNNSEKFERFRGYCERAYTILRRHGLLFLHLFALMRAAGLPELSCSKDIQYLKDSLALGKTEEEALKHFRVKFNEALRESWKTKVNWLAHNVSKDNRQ
Chain of PI3Kδ (P27986 whole entry partner): as the sequence (P27986 whole entry partner) above

By IC50 is commonly meant the concentration at which inhibition is half-maximal. For `C=CC(=O)N1CCC[C@@H](n2nc(-c3ccc(Oc4ccccc4)cc3)c3c(N)ncnc32)C1` [Ibrutinib, reference compound], the “apoptosis Z-138” value in the data set with Z-138 cells is on record as “mild effect”. Moreover, the IC50 with Mino cells [1] (Homo sapiens, MINO) was 6500 nM; in [4], 20000 nM; in the data set with JeKo-1 cells [5] (Homo sapiens, JeKo-1, 48 h), 8000 nM. Moreover, the “apoptosis Mino” value with Mino cells [2] is listed as “mild effect”. The “phosphorylation of PLCγ2” value in [3] was “inhibited phosphorylation of PLCγ2”. The “cells undergoing apoptosis after drug washout” value in the data set with JeKo-1 and Mino cells is recorded as 20–30%. In data set [6], the complete response is 23%. Moreover, in data set [6], the objective response rate is reported as 68%. Also, the “apoptosis JeKo-1” value in the data set on JeKo-1 cells [7] is “no effect”.

Take `C=CC(=O)N1CCOc2ccc(-c3csc4c(=O)cc(N5CCOCC5)oc34)cc21` [SRX3262]: the IC50 at BRD4 BD1 [8] is 228 nM; at PI3Kα, 64 nM; at BTK, 35 nM; at PI3Kδ it was 16 nM; in the data set with JeKo-1 BTK-WT cells (read-out: IC50 JeKo-1 BTK-WT, 48 h), 550 nM; in the data set with Mino cells [1] (Alamar Blue), 130 nM. Further, the IC50 in the data set on Mino BTK-WT cells is 690 nM; in the data set with JeKo-1 BTK-C481S cells, 730 nM; in the data set with JeKo-1 cells [5] (Alamar Blue, 48 h) it was 620 nM; in the data set with Mino BTK-C481S cells, 380 nM; at BRD4 BD2 [18], 348 nM. In the data set with Z-138 cells, the “apoptosis Z-138” value is “dramatically increased apoptosis”. Also, the “AKT phosphorylation after inhibitor washout” value in data set [9] is “sustained inhibition of AKT phosphorylation”. The “apoptosis in BTK-WT and Ibrutinib-resistant BTK-C481S cells” value in data set [10] is given as “increase in apoptotic cell death”. In the data set with JeKo-1 MCL tumors, the body weight result is “did not observe any notable changes in body weight”. The “times more effective than Ibrutinib” value with JeKo-1 BTK-WT cells (both JeKo-1 BTK-WT and JeKo-1 BTK-C481S cells) was 20–27 times. For the same molecule, in data set [11], the “phosphorylation of S473 in AKT” value is recorded as “inhibited phosphorylation”. The “phosphorylation of Y223 in BTK” value in [11] is “inhibited phosphorylation”. Further, the “apoptosis Mino” value in the data set with Mino cells [2] is “dramatically increased apoptosis”. Moreover, in [3], the “phosphorylation of PLCγ2” value was “inhibited phosphorylation of PLCγ2”. The “decrease in cell viability compared to Ibrutinib” value in data set [12] is on record as 3–6 times. Further, in [13], the “BRD4 localization at the cMYC promoter site” value is reported as “decreased”. For the same molecule, in the data set on JeKo-1 cells [14], the cell cycle arrest result is on record as “induced G2 phase cell cycle arrest”. In addition, in the data set with JeKo-1 and Mino cells, the “cells undergoing apoptosis after drug washout” value is on record as 40–70%. Besides, the “binding to BRD4 BD2 (chemical shift perturbations)” value in the data set on BRD4 BD2 [15] is “binds to both BD1 and BD2”. In addition, the “binding to BRD4 BD1 (chemical shift perturbations)” value with BRD4 BD1 [16] is “binds to both BD1 and BD2”. The cMYC protein level result in data set [17] is listed as “decreased the cMYC protein level”. For the same molecule, the “apoptosis JeKo-1” value with JeKo-1 cells [7] is reported as “dramatically increased apoptosis”. The “expression of HEXIM1” value in data set [19] is listed as “increase of expression of HEXIM1”. Moreover, in [19], the “expression of cMYC and BCL2” value is “decrease of expression”.

Regarding `Cc1sc2c(c1C)C(c1ccc(Cl)cc1)=N[C@@H](CC(=O)OC(C)(C)C)c1nnc(C)n1-2` [JQ1, reference compound], in data set [13], the “BRD4 localization at the cMYC promoter site” value is “decreased”.

These data come from PMC8445847 (iScience, 2021).
